These results are taken from paper PMC4457528, “Identification of Novel Small Molecule Inhibitors of Oncogenic RET Kinase” (PLoS ONE, 2015).

What all share (test): KinomeScan kinase panel, single concentration 10 µM
Assay type in all cases: binding

In experiment [1] the target is T1, KinomeScan kinase panel (Homo sapiens, UniProt Q9UBF8).
T1 construct: purchased DiscoveRx (KinomeScan)
To be noted: PIK4CB, 10 µM; read-out: score (%).

In experiment [2] the target is T2, KinomeScan kinase panel (Homo sapiens, UniProt P42679).
T2 construct: purchased DiscoveRx (KinomeScan)
T2 sequence (P42679 whole entry): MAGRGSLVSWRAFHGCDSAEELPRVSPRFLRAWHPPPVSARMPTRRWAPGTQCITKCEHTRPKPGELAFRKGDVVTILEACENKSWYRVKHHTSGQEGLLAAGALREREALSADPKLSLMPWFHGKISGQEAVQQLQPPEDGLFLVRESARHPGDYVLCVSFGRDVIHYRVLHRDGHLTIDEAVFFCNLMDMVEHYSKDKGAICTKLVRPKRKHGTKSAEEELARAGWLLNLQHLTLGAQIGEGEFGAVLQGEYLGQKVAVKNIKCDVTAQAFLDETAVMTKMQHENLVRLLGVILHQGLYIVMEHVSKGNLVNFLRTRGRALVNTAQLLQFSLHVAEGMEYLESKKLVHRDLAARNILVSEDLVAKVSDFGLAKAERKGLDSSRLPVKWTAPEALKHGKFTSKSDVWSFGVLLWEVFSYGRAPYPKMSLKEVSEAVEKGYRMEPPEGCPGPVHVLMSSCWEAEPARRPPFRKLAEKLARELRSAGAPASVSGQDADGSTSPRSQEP
The following applies: CTK, 10 µM; read-out: score (%).

For experiment [3], the target named is T3, KinomeScan kinase panel (Homo sapiens, UniProt Q9Y2H9).
T3 construct: purchased DiscoveRx (KinomeScan)
T3 sequence (Q9Y2H9 whole entry): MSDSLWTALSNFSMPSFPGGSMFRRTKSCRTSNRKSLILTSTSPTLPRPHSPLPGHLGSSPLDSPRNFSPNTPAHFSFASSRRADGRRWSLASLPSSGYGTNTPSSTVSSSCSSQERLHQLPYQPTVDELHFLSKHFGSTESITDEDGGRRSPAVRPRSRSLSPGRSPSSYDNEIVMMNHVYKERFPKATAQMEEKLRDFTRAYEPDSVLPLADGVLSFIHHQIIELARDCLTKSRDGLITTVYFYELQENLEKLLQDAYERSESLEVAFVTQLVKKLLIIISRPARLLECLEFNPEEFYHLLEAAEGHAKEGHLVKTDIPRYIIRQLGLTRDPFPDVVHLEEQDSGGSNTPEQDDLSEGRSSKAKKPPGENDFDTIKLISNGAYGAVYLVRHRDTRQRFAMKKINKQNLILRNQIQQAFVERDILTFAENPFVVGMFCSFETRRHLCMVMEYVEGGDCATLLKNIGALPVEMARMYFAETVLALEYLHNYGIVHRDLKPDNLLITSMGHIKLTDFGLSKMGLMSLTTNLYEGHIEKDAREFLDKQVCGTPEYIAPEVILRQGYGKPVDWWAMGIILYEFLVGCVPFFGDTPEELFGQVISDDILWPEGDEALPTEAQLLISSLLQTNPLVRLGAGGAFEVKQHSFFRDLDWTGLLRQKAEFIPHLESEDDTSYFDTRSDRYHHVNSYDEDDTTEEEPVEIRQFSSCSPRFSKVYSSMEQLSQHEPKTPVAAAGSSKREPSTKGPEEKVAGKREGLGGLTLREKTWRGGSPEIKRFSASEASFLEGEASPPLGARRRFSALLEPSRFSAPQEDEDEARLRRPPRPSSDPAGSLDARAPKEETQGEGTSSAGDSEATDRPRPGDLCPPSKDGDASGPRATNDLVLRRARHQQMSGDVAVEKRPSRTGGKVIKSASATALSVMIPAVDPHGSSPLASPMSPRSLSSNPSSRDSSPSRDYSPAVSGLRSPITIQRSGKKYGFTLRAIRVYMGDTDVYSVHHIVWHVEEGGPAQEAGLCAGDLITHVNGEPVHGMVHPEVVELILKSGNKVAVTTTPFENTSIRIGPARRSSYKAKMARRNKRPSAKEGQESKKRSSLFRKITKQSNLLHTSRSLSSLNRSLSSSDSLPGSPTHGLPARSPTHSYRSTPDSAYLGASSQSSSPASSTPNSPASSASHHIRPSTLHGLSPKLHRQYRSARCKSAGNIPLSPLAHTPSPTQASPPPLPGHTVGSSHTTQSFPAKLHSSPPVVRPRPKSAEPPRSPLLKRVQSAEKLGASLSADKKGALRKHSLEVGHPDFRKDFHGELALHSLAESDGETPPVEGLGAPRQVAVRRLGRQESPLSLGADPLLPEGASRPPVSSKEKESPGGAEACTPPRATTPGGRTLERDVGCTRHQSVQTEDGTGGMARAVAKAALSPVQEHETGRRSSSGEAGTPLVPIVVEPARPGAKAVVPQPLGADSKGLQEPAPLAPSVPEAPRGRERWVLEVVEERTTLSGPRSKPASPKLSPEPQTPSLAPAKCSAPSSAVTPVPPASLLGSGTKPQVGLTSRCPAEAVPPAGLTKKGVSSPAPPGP
To be noted: MAST1, 10 µM; read-out: score (%).

Experiment [4] concerns the target T4, KinomeScan kinase panel (Homo sapiens, UniProt Q13523).
T4 construct: purchased DiscoveRx (KinomeScan)
To be noted: read-out: score (%).

In experiment [5] the target is T5, KinomeScan kinase panel (Homo sapiens, UniProt P42336, C420R).
T5 construct: purchased DiscoveRx (KinomeScan)
T5 sequence (P42336 whole entry C420R): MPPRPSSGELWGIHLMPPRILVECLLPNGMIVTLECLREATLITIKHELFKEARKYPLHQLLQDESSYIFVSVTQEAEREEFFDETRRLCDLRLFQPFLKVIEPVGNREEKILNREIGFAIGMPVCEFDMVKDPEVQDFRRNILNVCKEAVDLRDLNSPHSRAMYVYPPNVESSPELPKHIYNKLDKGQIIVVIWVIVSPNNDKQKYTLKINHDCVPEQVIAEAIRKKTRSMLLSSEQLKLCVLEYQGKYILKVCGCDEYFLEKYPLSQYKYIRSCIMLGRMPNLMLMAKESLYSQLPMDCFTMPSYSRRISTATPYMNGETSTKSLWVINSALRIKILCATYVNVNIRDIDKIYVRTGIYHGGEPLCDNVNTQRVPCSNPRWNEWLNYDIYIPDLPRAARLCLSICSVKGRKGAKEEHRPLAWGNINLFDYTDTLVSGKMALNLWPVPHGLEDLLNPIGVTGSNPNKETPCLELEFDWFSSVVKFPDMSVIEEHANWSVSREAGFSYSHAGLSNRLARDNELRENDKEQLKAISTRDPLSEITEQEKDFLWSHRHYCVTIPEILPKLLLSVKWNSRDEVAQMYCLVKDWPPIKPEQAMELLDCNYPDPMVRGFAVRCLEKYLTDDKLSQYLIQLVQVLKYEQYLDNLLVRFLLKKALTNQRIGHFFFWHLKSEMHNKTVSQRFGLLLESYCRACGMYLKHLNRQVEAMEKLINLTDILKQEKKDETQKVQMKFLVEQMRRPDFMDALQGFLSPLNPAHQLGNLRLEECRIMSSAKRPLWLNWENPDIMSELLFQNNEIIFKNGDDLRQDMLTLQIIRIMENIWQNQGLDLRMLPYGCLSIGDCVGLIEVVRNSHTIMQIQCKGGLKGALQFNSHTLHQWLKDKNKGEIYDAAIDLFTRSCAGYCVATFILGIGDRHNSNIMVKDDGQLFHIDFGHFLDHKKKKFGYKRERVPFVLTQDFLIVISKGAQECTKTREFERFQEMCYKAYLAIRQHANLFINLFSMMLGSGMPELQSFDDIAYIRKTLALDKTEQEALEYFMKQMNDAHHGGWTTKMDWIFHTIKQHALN
The following applies: PIK3CA(C420R), 10 µM; read-out: score (%).

Experiment [6] deals with T6, KinomeScan kinase panel (Homo sapiens, UniProt Q8WTQ7).
T6 construct: purchased DiscoveRx (KinomeScan)
To be noted: GRK7, 10 µM; read-out: score (%).

The target of experiment [7] is T7, KinomeScan kinase panel (Homo sapiens, UniProt P20794).
T7 construct: purchased DiscoveRx (KinomeScan)
T7 sequence (P20794 whole entry): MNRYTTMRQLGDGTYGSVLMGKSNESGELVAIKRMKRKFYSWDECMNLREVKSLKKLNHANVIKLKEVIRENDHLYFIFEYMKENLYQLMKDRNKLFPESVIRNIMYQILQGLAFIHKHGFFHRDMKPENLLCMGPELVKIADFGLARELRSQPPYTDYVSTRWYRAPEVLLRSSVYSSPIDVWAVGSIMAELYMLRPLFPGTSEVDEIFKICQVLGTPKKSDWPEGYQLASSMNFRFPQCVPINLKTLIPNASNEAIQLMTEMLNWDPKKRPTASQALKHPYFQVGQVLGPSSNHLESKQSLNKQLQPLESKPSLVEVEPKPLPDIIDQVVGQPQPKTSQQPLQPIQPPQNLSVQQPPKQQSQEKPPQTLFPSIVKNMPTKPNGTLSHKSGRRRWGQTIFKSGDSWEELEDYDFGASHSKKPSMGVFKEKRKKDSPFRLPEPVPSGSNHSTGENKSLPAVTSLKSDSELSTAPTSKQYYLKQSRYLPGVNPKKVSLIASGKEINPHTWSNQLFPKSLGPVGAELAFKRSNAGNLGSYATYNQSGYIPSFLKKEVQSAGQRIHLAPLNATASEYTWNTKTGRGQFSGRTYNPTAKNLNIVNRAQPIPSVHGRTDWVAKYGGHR
To be noted: MAK, 10 µM; read-out: score (%).

Experiment [8] has as its target T8, KinomeScan kinase panel (Homo sapiens, UniProt P51957).
T8 construct: purchased DiscoveRx (KinomeScan)
The following applies: NEK4, 10 µM; read-out: score (%).

Experiment [9] concerns the target T9, KinomeScan kinase panel (Homo sapiens, UniProt P23443).
T9 construct: purchased DiscoveRx (KinomeScan)
To be noted: kinase S6K1; 10 µM; read-out: score (%).

Experiment [10] deals with T10, KinomeScan kinase panel (Homo sapiens, UniProt Q14004).
T10 construct: purchased DiscoveRx (KinomeScan)
To be noted: CDC2L5, 10 µM.

The target of experiment [11] is T11, KinomeScan kinase panel (Homo sapiens, UniProt Q9NWZ3).
T11 construct: purchased DiscoveRx (KinomeScan)
To be noted: IRAK4, 10 µM.

Experiment [12] addresses T12, KinomeScan kinase panel (Homo sapiens, UniProt P41743).
T12 construct: purchased DiscoveRx (KinomeScan)
To be noted: kinase PRKCI; 10 µM; read-out: score (%).

The target in experiment [13] is T13, KinomeScan kinase panel (Plasmodium falciparum, UniProt P62344).
T13 construct: purchased DiscoveRx (KinomeScan)
To be noted: PFCDPK1(P.falciparum), 10 µM; read-out: score (%).

Experiment [14] concerns the target T14, KinomeScan kinase panel (Homo sapiens, UniProt P48729).
T14 construct: purchased DiscoveRx (KinomeScan)
The following applies: CSNK1A1, 10 µM; read-out: score (%).

The target of experiment [15] is T15, KinomeScan kinase panel (Homo sapiens, UniProt Q8TBX8).
T15 construct: purchased DiscoveRx (KinomeScan)
To be noted: PIP5K2C, 10 µM; read-out: score (%).

Experiment [16] deals with T16, KinomeScan kinase panel (Homo sapiens, UniProt Q6XUX3).
T16 construct: purchased DiscoveRx (KinomeScan)
To be noted: kinase RIPK5; 10 µM; read-out: score (%).

In experiment [17] the target is T17, KinomeScan kinase panel (Homo sapiens, UniProt P11802).
T17 construct: purchased DiscoveRx (KinomeScan)
T17 sequence (P11802 whole entry): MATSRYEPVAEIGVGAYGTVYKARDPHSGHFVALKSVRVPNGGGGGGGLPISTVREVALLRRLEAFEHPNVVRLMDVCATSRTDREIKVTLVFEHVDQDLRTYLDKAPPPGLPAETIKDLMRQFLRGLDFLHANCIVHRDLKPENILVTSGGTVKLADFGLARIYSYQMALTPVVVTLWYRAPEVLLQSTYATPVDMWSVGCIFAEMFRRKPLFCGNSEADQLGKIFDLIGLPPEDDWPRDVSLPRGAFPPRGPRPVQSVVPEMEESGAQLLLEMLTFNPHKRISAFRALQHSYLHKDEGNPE
The following applies: read-out: score (%).

Experiment [18] addresses T18, KinomeScan kinase panel (Homo sapiens, UniProt Q8WU08).
T18 construct: purchased DiscoveRx (KinomeScan)
The following applies: kinase YANK1; 10 µM; read-out: score (%).

For experiment [19], the target named is T19, KinomeScan kinase panel (Homo sapiens, UniProt Q9BQI3).
T19 construct: purchased DiscoveRx (KinomeScan)
To be noted: EIF2AK1, 10 µM; read-out: score (%).

Experiment [20] concerns the target T20, KinomeScan kinase panel (Mycobacterium tuberculosis, UniProt P9WI81).
T20 construct: purchased DiscoveRx (KinomeScan)
The following applies: PKNB(M.tuberculosis), 10 µM; read-out: score (%).

Experiment [21] has as its target T21, KinomeScan kinase panel (Plasmodium falciparum, UniProt P61075).
T21 construct: purchased DiscoveRx (KinomeScan)
The following applies: PFPK5(P.falciparum), 10 µM; read-out: score (%).

In experiment [22] the target is T22, KinomeScan kinase panel (Homo sapiens, UniProt Q9NRH2).
T22 construct: purchased DiscoveRx (KinomeScan)
To be noted: kinase SNRK; 10 µM; read-out: score (%).

For experiment [23], the target named is T23, KinomeScan kinase panel (Homo sapiens, UniProt P36888, R834Q).
T23 construct: purchased DiscoveRx (KinomeScan)
To be noted: FLT3(R834Q), 10 µM; read-out: score (%).

For experiment [24], the target named is T24, KinomeScan kinase panel (Homo sapiens, UniProt Q9UL54).
T24 construct: purchased DiscoveRx (KinomeScan)
To be noted: kinase TAOK2; 10 µM; read-out: score (%).

Experiment [25] deals with T25, KinomeScan kinase panel (Homo sapiens, UniProt Q9BX84).
T25 construct: purchased DiscoveRx (KinomeScan)
To be noted: kinase TRPM6; 10 µM; read-out: score (%).

The target in experiment [26] is T26, KinomeScan kinase panel (Homo sapiens, UniProt Q96BR1).
T26 construct: purchased DiscoveRx (KinomeScan)
To be noted: kinase SGK3; 10 µM; read-out: score (%).

Experiment [27] deals with T27, KinomeScan kinase panel (Homo sapiens, UniProt P00533, T790M).
T27 construct: purchased DiscoveRx (KinomeScan)
To be noted: EGFR(T790M), 10 µM.

Experiment [28] has as its target T28, KinomeScan kinase panel (Homo sapiens, UniProt Q00532).
T28 construct: purchased DiscoveRx (KinomeScan)
The following applies: CDKL1, 10 µM; read-out: score (%).

The target in experiment [29] is T29, KinomeScan kinase panel (Homo sapiens, UniProt P10721, D816H).
T29 construct: purchased DiscoveRx (KinomeScan)
The following applies: KIT(D816H), 10 µM; read-out: score (%).

Experiment [30] has as its target T30, KinomeScan kinase panel (Homo sapiens, UniProt P42345).
T30 construct: purchased DiscoveRx (KinomeScan)
To be noted: MTOR, 10 µM; read-out: score (%).

Experiment [31] deals with T31, KinomeScan kinase panel (Homo sapiens, UniProt Q5S007).
T31 construct: purchased DiscoveRx (KinomeScan)
To be noted: LRRK2, 10 µM; read-out: score (%).

Experiment [32] concerns the target T32, KinomeScan kinase panel (Homo sapiens, UniProt P42336, I800L).
T32 construct: purchased DiscoveRx (KinomeScan)
The following applies: PIK3CA(I800L), 10 µM; read-out: score (%).

Experiment [33] deals with T33, KinomeScan kinase panel (Homo sapiens, UniProt Q8NG66).
T33 construct: purchased DiscoveRx (KinomeScan)
The following applies: NEK11, 10 µM; read-out: score (%).

Like-named read-outs stand apart in the source and are kept apart here.

T1 sequence (Q9UBF8 whole entry): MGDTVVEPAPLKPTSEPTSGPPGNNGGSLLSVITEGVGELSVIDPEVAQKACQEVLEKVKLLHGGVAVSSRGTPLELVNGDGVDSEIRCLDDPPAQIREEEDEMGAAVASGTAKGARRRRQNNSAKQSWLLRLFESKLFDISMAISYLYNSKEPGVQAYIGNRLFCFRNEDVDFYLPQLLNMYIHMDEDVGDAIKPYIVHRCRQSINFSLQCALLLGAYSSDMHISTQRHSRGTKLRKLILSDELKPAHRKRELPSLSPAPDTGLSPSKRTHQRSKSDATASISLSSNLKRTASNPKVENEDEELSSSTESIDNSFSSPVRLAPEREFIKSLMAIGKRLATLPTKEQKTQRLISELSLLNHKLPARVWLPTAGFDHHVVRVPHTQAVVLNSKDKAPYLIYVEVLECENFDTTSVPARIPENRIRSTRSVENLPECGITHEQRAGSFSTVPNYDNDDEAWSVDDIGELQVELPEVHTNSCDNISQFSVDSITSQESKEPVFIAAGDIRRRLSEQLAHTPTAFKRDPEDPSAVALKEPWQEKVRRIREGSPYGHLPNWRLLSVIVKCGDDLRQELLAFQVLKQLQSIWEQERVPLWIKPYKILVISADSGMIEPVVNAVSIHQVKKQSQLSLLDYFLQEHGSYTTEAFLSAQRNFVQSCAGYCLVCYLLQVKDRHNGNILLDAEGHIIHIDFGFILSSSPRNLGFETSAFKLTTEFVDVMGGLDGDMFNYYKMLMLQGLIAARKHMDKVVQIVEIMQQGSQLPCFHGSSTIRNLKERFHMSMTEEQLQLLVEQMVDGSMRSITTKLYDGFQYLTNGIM
T32 sequence (P42336 whole entry I800L): as the sequence (P42336 whole entry C420R) above, with R420C, I800L counted along it

As for `CCN1CCN(Cc2ccc(NC(=O)c3ccc(C)c(NC(=O)c4cncc(-c5cccs5)c4)c3)cc2C(F)(F)F)CC1` [ALW-II-41-27], the remaining binding at 10 µM is more than 30% at KinomeScan kinase panel [1]; more than 30% on KinomeScan kinase panel [2]; more than 30% on KinomeScan kinase panel [3]; more than 30% at KinomeScan kinase panel [4] (PRP4, 10 µM); more than 30% at KinomeScan kinase panel [5]; 16% at KinomeScan kinase panel [6]. Moreover, the remaining binding at 10 µM at KinomeScan kinase panel [7] was more than 30%.

On to `CCN1CCN(Cc2ccc(NC(=O)c3ccc(C)c(C#Cc4cccnc4)c3)cc2C(F)(F)F)CC1` [XMD15-44], for which the remaining binding at 10 µM on KinomeScan kinase panel [1] was 100%; on KinomeScan kinase panel [8], 6.4%; on KinomeScan kinase panel [9], 11%; at KinomeScan kinase panel [12], 42%; at KinomeScan kinase panel [13] it was 0.05%; on KinomeScan kinase panel [2], more than 30%. Also, the remaining binding at 10 µM is more than 30% at KinomeScan kinase panel [14]; 100% on KinomeScan kinase panel [15]; 27% at KinomeScan kinase panel [16]; 21% on KinomeScan kinase panel [17] (CDK4-cyclinD1, 10 µM); more than 30% at KinomeScan kinase panel [17] (CDK4-cyclinD3, 10 µM); more than 30% at KinomeScan kinase panel [3]. Also, the remaining binding at 10 µM was 54% on KinomeScan kinase panel [4] (kinase PRP4, 10 µM); 81% on KinomeScan kinase panel [18]; more than 30% at KinomeScan kinase panel [19]; 87% at KinomeScan kinase panel [20]; 89% at KinomeScan kinase panel [21]; 34% on KinomeScan kinase panel [22]. The remaining binding at 10 µM was 4.2% at KinomeScan kinase panel [23]; 0.15% at KinomeScan kinase panel [24]; 49% on KinomeScan kinase panel [25]; 6.2% at KinomeScan kinase panel [26]; 72% on KinomeScan kinase panel [5]; more than 30% on KinomeScan kinase panel [6]. Further, the remaining binding at 10 µM on KinomeScan kinase panel [7] is 9%; at KinomeScan kinase panel [28] it was more than 30%; at KinomeScan kinase panel [29] it was 6%; at KinomeScan kinase panel [30], more than 30%; on KinomeScan kinase panel [31] it was 3.4%; on KinomeScan kinase panel [32] it was 72%. Also, the remaining binding at 10 µM at KinomeScan kinase panel [33] was determined as 9.1%. The “score (%)” value at KinomeScan kinase panel [10] was 6.5%; on KinomeScan kinase panel [11], “nb (Hits values higher than 30% were considered negative (no binding: nb))”; on KinomeScan kinase panel [27] it was “nb (Hits values higher than 30% were considered negative (no binding: nb))”.
